From publication PMC7932537, “Quantitative profiling of protease specificity” (PLoS Computational Biology, 2021)

What was measured:
[1] = target: T1, MMP-2 (Homo sapiens, UniProt P08253); experiment: K(obs) of individual phage substrates (set of 1369); format: biochemical; details: MMP2
T1 sequence (P08253 110-660): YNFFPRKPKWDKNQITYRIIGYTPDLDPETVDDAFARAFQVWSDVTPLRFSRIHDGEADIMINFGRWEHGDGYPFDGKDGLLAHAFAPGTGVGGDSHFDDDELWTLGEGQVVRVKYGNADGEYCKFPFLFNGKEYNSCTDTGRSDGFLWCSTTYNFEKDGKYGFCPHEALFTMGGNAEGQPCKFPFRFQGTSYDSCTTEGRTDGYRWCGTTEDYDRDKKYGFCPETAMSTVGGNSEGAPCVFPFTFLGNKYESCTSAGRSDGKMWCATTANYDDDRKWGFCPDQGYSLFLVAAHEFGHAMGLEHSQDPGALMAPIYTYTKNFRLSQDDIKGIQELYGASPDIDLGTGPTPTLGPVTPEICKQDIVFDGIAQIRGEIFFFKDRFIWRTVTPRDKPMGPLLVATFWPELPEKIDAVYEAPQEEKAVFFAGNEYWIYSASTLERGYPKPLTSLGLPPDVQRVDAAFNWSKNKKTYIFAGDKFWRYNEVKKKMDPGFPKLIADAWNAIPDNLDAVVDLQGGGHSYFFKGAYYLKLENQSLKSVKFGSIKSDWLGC

[2] = target: MMP-9 (Homo sapiens, UniProt P14780); experiment: as above; format: biochemical; details: MMP9
[3] = test system: MMP-2; experiment: Substrate phage display with NGS: relative probability (RP) of P3-P1' tetramer clusters; format: biochemical, human; details: MMP2;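 note: ratio of tetramer probability after protease selection to that in naive phage library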
[4] = individual phage substrate of the set of 1369 peptides, cleavage position marked by '-'
[5] = individual phage substrate of the set of 1369 peptides, dash in the sequence marks the cleavage position
[6] = RP of the P3-P1' tetramer contained in the substrate
[7] = individual phage substrates, set of 1369 peptides, cleavage position marked by hyphen in sequence
[8] = individual phage substrates, set of 1369 peptides, hyphen in sequence marks cleavage position
[9] = RP of the P3-P1' tetramer contained in the substrate (substrate phage display with NGS)

MMP-9, sequence (P14780 94-707): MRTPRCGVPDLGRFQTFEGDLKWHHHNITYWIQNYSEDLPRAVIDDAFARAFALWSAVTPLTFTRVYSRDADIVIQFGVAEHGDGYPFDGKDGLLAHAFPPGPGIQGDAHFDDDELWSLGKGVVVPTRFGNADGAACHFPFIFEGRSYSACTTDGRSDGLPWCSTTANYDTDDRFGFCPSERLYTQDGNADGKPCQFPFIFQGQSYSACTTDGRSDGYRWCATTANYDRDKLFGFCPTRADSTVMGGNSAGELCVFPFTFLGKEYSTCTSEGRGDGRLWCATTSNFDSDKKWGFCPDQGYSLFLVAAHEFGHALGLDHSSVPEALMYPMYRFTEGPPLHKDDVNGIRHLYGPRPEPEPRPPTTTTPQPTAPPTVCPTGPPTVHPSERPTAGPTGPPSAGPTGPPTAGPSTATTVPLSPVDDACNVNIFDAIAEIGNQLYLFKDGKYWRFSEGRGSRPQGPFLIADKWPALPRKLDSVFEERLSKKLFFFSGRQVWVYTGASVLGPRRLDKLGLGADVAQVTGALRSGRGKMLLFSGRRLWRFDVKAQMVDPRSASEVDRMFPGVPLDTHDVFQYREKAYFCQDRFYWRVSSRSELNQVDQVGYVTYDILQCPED

Substance	Kobs [1, 4] [M⁻¹ s⁻¹]	Kobs [2, 5] [M⁻¹ s⁻¹]	relative probability (RP) [3, 6]	Kobs [1, 7] [M⁻¹ s⁻¹]	Kobs [2, 8] [M⁻¹ s⁻¹]	relative probability (RP) [3, 9]
STIRM-LTASG	2837.92	2157.02	12.7446			
STVFH-MTASG				0	1763.55	5.168
SVGLY-LTASG	418.952	0	0.07615			
SYALH-LTASG	12792.1	3964.21	14.6488			
TAPKL-LTASG	7815.03	12792.1	15.3454			
TATNW-LTASG	5461.43	0	15.348			
TFARS-LTASG				8941.32	5889.62	17.186
TFPFM-LTASG	1981.53	12792.1	19.624			
TFWGA-LTASG	10866.7	0	26.3441			
TGVSW-LTASG				12792.1	10866.7	30.6564
TILRN-ITASG	7815.03	2837.92	19.0698			
TIPFY-MTASG				3964.21	9740.44	8.184
TKMAW-LTASG	7015.91	1513.13	31.5866			
TKWLA-LTASG				3079.62	3637.04	1.218
TKYAY-ITASG				0	0	1.709
TMGMN-MTASG				142.481	517.582	0
TNPIM-LTASG				418.952	1071.29	15.4441
TQVFG-LTASG				2687.73	5461.43	12.5523
TRIAY-LTASG	12792.1	3165.09	27.9862			
TRLAH-VTASG				1660.66	0	11.7405

Substance	Kobs [1, 4] [M⁻¹ s⁻¹]	Kobs [2, 5] [M⁻¹ s⁻¹]	relative probability (RP) [3, 6]	Kobs [1, 7] [M⁻¹ s⁻¹]	Kobs [2, 8] [M⁻¹ s⁻¹]	relative probability (RP) [3, 9]
TSFRM-LTASG				0	0	0.2112
TSLAN-LTASG				9740.44	0	34.4823
TSPVA-LTASG	12792.1	12792.1	34.2983			
TTHYS-LTASG				0	142.481	0.1694
TTLRW-WTASG				1816.46	690.17	6.313
TTPSW-LTASG				9740.44	12792.1	35.705
TTPYH-ITASG	4922.1	12792.1	15.3574			
TTYMS-LTASG	0	0	0.07249			
TVLNS-LTASG				3438.54	0	18.3633
TVPQM-ITASG	5269.78	7815.03	16.6558			
TVPRA-WTASG				8941.32	8941.32	34.1791
TVPYQ-LTASG	12792.1	12792.1	25.4279			
TVSYA-LTASG				1154.21	2687.73	4.7967
TVTQN-LTASG	1327.88	0	7.238			
TVVAY-ITASG	12792.1	1112.44	18.7179			
VDIRM-LTASG	5889.62	3079.62	12.7446			
VFPMS-LTASG	12792.1	12792.1	32.4868			
VFTRN-LTASG	12792.1	6396.07	12.3403			
VFVSN-LTASG				12792.1	9740.44	33.8801
VHFAS-LTASG	12792.1	1030.73	15.5827			

Substance	Kobs [1, 4] [M⁻¹ s⁻¹]	Kobs [2, 5] [M⁻¹ s⁻¹]	relative probability (RP) [3, 6]	Kobs [1, 7] [M⁻¹ s⁻¹]	Kobs [2, 8] [M⁻¹ s⁻¹]	relative probability (RP) [3, 9]
VIPRP-LTASG	12792.1	12792.1	34.3303			
VIYGN-LTASG	8941.32	0	24.0019			
VKAYN-LTASG				8941.32	9740.44	20.8713
VKPWA-LTASG	5667.28	10866.7	31.9211			
VKVFS-MTASG				912.511	4470.66	2.265
VLPEP-LTASG	8941.32	6396.07	26.8179			
VLPRS-WTASG				8321.48	5889.62	32.796
VLWAG-LTASG				12792.1	3344.37	28.1709
VLWRA-LTASG	12792.1	12792.1	22.4074			
VMLRF-LTASG	12792.1	8321.48	10.7085			
VMVWN-ITASG				2761.81	8321.48	4.0144
VMYGN-LTASG				12792.1	619.843	24.0019
VNARM-LTASG				1196.62	2218.08	2.9901
VPPEA-ITASG				12792.1	12792.1	22.5231
VPPRV-LTASG	799.117	2687.73	13.9079			
VPWGN-LTASG				5461.43	0	14.7295
VQQQG-LTASG	3741.87	231.616	6.401			
VRAHS-LTASG				4205.91	4922.1	21.0212
